Results from patent US5250283A, “Organic contrast agent analog and method of making same” (priority 1992, dated 1993).
Where a name gives a salt, the structure may show the parent alone.

Experiment: Thin layer chromatography of bile (metabolism) in rats
Type: in vivo
Conditions: rat bile, i.v.
Protocol: Lesser concentrations were found in the other tissues. Excretion of the two compounds were found only in bile with no compound detected in urine. In bile, TFA-IOP reached a maximum concentration of […] with the recovery of 40% of the injection dose during a 90 minute time period (see FIG. 6).

CCC(Cc1c(I)cc(I)c(NC(=O)C(F)(F)F)c1I)C(=O)O (centres unmarked) [TFA-IOP, N-trifluoroacetyl-iopanoic acid]
metabolism, TLC of bile: a vast majority of the injected TFA-IOP was metabolized to a single metabolite | nonmetabolized compound in bile (TLC): No nonmetabolized compound was found
